Where two headings read alike, the source gives them in different places.

Data on 49 molecules can be found in article PMC6057649, “Development of NanoLuc-PEST expressing Leishmania mexicana as a new drug discovery tool for axenic- and intramacrophage-based assays” (PLoS Neglected Tropical Diseases, 2018).

The assay relates to NanoLuc-PEST expressing L. mexicana axenic amastigotes. Nature of the assay: microbe, parasite or virus in culture. As to conditions: for viability at 2 µM / viability at 10 µM: read-out: Relative Bioluminescence (%); for EC50: read-out: EC50, Axenic Amastigotes. Format: cell-based.
The mark [1] stands for this setting: Leishmania mexicana, 2 µM compound, 72 hours, relative to DMSO only control, n = 4.
The mark [2] stands for this setting: Leishmania mexicana, 10 µM compound, 72 hours, relative to DMSO only control, n = 4.
The mark [3] stands for this setting: 2 µM compound, 72 hours, relative to DMSO only control, n = 4.
Where [4] appears, read: 10 µM compound, 72 hours, relative to DMSO only control, n = 4.
The mark [5] stands for this setting: hit compounds from the axenic amastigote screen, S3 Table.

With `C[C@H]1c2cccc(O)c2C(=O)C2=C(O)[C@]3(O)C(=O)C(C(N)=O)=C(O)[C@@H](N(C)C)[C@@H]3[C@@H](O)[C@@H]21` [MMV000011, Doxycycline, reference compound], the viability at 2 µM under setting [1] amounted to 95%. Moreover, the viability at 10 µM under setting [2] came out at 94.7%.
The like results for `OC(c1cc(C(F)(F)F)nc2c(C(F)(F)F)cccc12)C1CCCCN1` (centres unmarked) [MMV000014, Mefloquine, reference compound] were, in that order, 93.4% and 109%.
`COc1cc(NC(C)CCCN)c2ncccc2c1` (centres unmarked) [MMV000023, Primaquine, reference compound]: the viability at 2 µM under setting [1] was 55%. Also, the viability at 10 µM under setting [2] was 76.8%.
In the case of `N=C(N)c1ccc(OCCCCCOc2ccc(C(=N)N)cc2)cc1` [MMV000062, Pentamidine, reference compound], under setting [1], the viability at 2 µM is 72.2%. The viability at 10 µM under setting [2] came to 96.8%.
The like results for `CCN(CC)CCCCCCNc1cc(OC)cc2c(C)ccnc12` [MMV000063, Sitamaquine, reference compound] were, in that order, 69.6% and 73.6%.
On to `O=S(=O)(c1ccc(Cl)cc1)N1CCN(C(=S)NCc2ccco2)CC1` [MMV000858], for which the “Relative Bioluminescence (%)” value under setting [3] amounted to 100.91% and the “Relative Bioluminescence (%)” value under setting [4] came to 108.52%.
The like results for `COc1cccc2c(C)nc(N=C(N)N)nc12` [MMV000907] were, in that order, 95.69% and 78.62%.
The like results for `CCCS(=O)(=O)N1CCC(CO)(Cc2ccccc2C(F)(F)F)CC1` [MMV001059] were, in that order, 109.79% and 96.75%.
For `COC(=O)C1=C(C)NC(C)=C(C(=O)OC(C)C)C1c1cccc2nonc12` (centres unmarked) [MMV001493, Isradipine, reference compound], the viability at 2 µM under setting [1] came to 130%. Further, the viability at 10 µM under setting [2] is 89.6%.
In the case of `CC1CS(=O)(=O)CCN1/N=C/c1ccc([N+](=O)[O-])o1` (centres unmarked) [MMV001499, Nifurtimox, reference compound], for the setting “Leishmania mexicana, 72 h”, the viability at 2 µM worked out at 7.65% and the viability at 10 µM is -2.17%.
For `CNCCC(Oc1ccc(C(F)(F)F)cc1)c1ccccc1` (centres unmarked) [MMV001561, Fluoxetine, reference compound], the viability at 2 µM under setting [1] turned out to be 90.4%. Besides, the viability at 10 µM under setting [2] worked out at 52.4%.
`NCCC[C@](N)(C(=O)O)C(F)F` [MMV001625, α-Difluoromethylornithine, reference compound]: the “Relative Bioluminescence (%)” value by setting is: under setting [3], 69.72%; under setting [4], 81.23%.
Turning to `O=C(C1CCCCC1)N1CC(=O)N2CCc3ccccc3C2C1` (centres unmarked) [MMV002529, Praziquantel, reference compound], the viability at 2 µM under setting [1] was 64.8%. Also, under setting [2], the viability at 10 µM is 93.8%.
The like results for `CCN(CC)C(=O)N1CCN(C)CC1` [MMV002816, Diethylcarbamazine, reference compound] were, in that order, 88.8% and 62.5%.
The EC50 is the concentration at which the effect is half-maximal. Take `Oc1c(I)cc(I)c2cccnc12` [MMV002817, Iodoquinol, reference compound]: the viability at 2 µM under setting [1] is -1.49%. Also, under setting [2], the viability at 10 µM is -1.46%. Further, the EC50 (Leishmania mexicana, hit compounds from the axenic amastigote screen, S3 Table) amounted to 220 nM.
`COC(=O)Nc1nc2ccc(C(=O)c3ccccc3)cc2[nH]1` [MMV003152, Mebendazole, reference compound]: the viability at 2 µM under setting [1] was found to be 0.9%. In addition, under setting [2], the viability at 10 µM was -0.49%. The “EC50, Axenic Amastigotes” value under setting [5] is “could not be resolved”.
For `CN1CCCN(C(c2ccccc2)c2ccc(Cl)cc2)CC1` (centres unmarked) [MMV004168], the “Relative Bioluminescence (%)” value under setting [3] is 64.14% and the “Relative Bioluminescence (%)” value under setting [4] turned out to be 52.89%.
The like results for `O=C1Nc2ccc(Br)cc2C12NCCc1c2[nH]c2ccccc12` (centres unmarked) [MMV006239] were, in that order, 107.64% and 108.03%.
On to `Cc1ccc2[nH]c3c(NCCN(C)C)ncnc3c2c1` [MMV006372], for which the “Relative Bioluminescence (%)” value runs as follows: under setting [3], 63.77%; under setting [4], 81.31%.
The like results for `COc1cc2ncnc(NC3CCN(Cc4ccccc4)CC3)c2cc1OC` [MMV006741] were, in that order, 83.56% and 113.49%.
The like results for `Cc1cc(Cl)c(S(=O)(=O)N2CCCC2)cc1OCC(=O)NC1CCCCC1` [MMV006833] were, in that order, 98.68% and 81.43%.
The like results for `CN(C)c1cc(NC(=O)Nc2ccccc2)c2ccccc2n1` [MMV006901] were, in that order, 96.82% and 107.15%.
Consider `Cc1cc(NC(=O)c2ccc(S(=O)(=O)N(Cc3ccccc3)C(C)C)cc2)no1` [MMV007133], for which the “Relative Bioluminescence (%)” value reads like this: under setting [3], 102.77%; under setting [4], 71.20%.
For `COc1cc(OC)cc(C(=O)NCC2Cc3cc(Cl)cc(-c4ccncc4)c3O2)c1` (centres unmarked) [MMV007471], the “Relative Bioluminescence (%)” value runs as follows: under setting [3], 87.80%; under setting [4], 69.68%.
The like results for `Cc1cc(C)n(-c2ccc(NC(=O)C3CCN(Cc4cnc(C)s4)CC3)cc2)n1` [MMV007625] were, in that order, 85.10% and 76.47%.
In the case of `CCOc1ccc(-c2nc(NC(=O)CS(=O)(=O)c3ccccc3)sc2C)cc1` [MMV007638], the “Relative Bioluminescence (%)” value under setting [3] was 57.66% and the “Relative Bioluminescence (%)” value under setting [4] came out at 52.58%.
Turning to `O=C(NC1CC1)c1ccc(CSCc2ccccc2Cl)o1` [MMV007803], the “Relative Bioluminescence (%)” value under setting [3] is on record as 113.68% and the “Relative Bioluminescence (%)” value under setting [4] stood at 107.95%.
In the case of `Nc1ccc(C(=O)Nc2ccc(-c3nc4ccccc4o3)cc2)cc1` [MMV007920], the “Relative Bioluminescence (%)” value under setting [3] is recorded as 112.76% and the “Relative Bioluminescence (%)” value under setting [4] is given as 88.96%.
The like results for `COc1ccc(CN2CCOc3ccc(C(C)(O)CN(C)C)cc3C2)cc1C` (centres unmarked) [MMV008439] were, in that order, 83.20% and 126.81%.
The like results for `Cc1cc(C(=O)Nc2cnn(Cc3ccc(Cl)cc3Cl)c2)no1` [MMV009054] were, in that order, 106.08% and 100.62%.
For the molecule `O=C(C1CCN(c2nnnn2-c2ccccc2)CC1)N1CCc2ccccc2C1` [MMV009135], the “Relative Bioluminescence (%)” value reads like this: under setting [3], 83.57%; under setting [4], 73.86%.
The like results for `COc1ccc(-c2cnc3ccc(NCc4ccc(S(N)(=O)=O)cc4)nn23)cn1` [MMV010545] were, in that order, 70.73% and 68.48%.
The like results for `COc1cc(-c2cc(-c3ccc(S(C)(=O)=O)cc3)cnc2N)ccc1O` [MMV010576] were, in that order, 44.69% and 21.84%.
The like results for `c1csc(-c2cnc3sc(NCC4CCOCC4)nn23)c1` [MMV010764] were, in that order, 69.50% and 31.69%.
On to `Cc1cc(Nc2ccc(C(F)(F)F)cc2)n2ccnc2n1` [MMV011229], for which the “Relative Bioluminescence (%)” value is, setting by setting: under setting [3], 102.18%; under setting [4], 84.66%.
Regarding `COc1ccc(CCN2CCC(NCc3cccc(N(C)C)c3)CC2)cc1` [MMV011511], the “Relative Bioluminescence (%)” value is, setting by setting: under setting [3], 78.49%; under setting [4], 88.55%.
Consider `NCC(=O)N1CCn2c(nc(-c3ccccc3)c2Nc2ccc3c(c2)OCO3)C1` [MMV011691], for which the “Relative Bioluminescence (%)” value is 105.27% under setting [3] and 73.17% under setting [4].
`FC(F)(F)c1cnc(Sc2nnc(-c3ccncc3)o2)c(Cl)c1` [MMV011765]: the “Relative Bioluminescence (%)” value came to 84.80% under setting [3] and 45.24% under setting [4].
For the molecule `Cc1nc2ccccn2c1C(=O)NCc1ccc(Cl)cc1` [MMV012074], the “Relative Bioluminescence (%)” value was 98.27% under setting [3] and 123.86% under setting [4].
As to `Cc1cc(Nc2ccncc2)n2nc(C)c(-c3ccccc3Cl)c2n1` [MMV016136], the “Relative Bioluminescence (%)” value under setting [3] is 83.56% and the “Relative Bioluminescence (%)” value under setting [4] is on record as 91.85%.
The like results for `Cc1ccc(-c2cc(C(=O)Nc3cccnc3)c3cc(Br)ccc3n2)cc1` [MMV016838] were, in that order, 44.83% and 13.69%.
In the case of `Cc1cc(C)n2nc(C(=O)Nc3cc(C(F)(F)F)ccc3N3CCOCC3)nc2n1` [MMV019087], the “Relative Bioluminescence (%)” value under setting [3] was 89.61% and the “Relative Bioluminescence (%)” value under setting [4] is listed as 89.32%.
Turning to `Cc1ccc2c(c1C)NC(=O)C21NN=C(c2ccccc2)S1` (centres unmarked) [MMV019189], the “Relative Bioluminescence (%)” value under setting [3] is given as -1.73% and the “Relative Bioluminescence (%)” value under setting [4] was -1.42%. The EC50 under setting [5] amounted to 320 nM.
For the molecule `COc1ccc(C2CC(c3cccs3)=NN2C(=O)c2ccco2)cc1OC` (centres unmarked) [MMV019234], the “Relative Bioluminescence (%)” value reads like this: under setting [3], 106.08%; under setting [4], 39.61%.
The like results for `CCC(NC(=O)c1ccccc1NC(=O)c1ccc(C)cc1)C(=O)OC` (centres unmarked) [MMV019551] were, in that order, 70.29% and 42.20%.
The like results for `CCN(CC)S(=O)(=O)c1ccc(Cl)c(C(=O)Nc2ccc3nc(C)sc3c2)c1` [MMV019721] were, in that order, 65.53% and 69.43%.
As to `Cc1ccc(S(=O)(=O)N2CCN(C(=O)c3cc(-c4ccccc4)n[nH]3)CC2)cc1` [MMV019742], the “Relative Bioluminescence (%)” value worked out at 69.14% under setting [3] and 102.67% under setting [4].
The like results for `CCOc1ccccc1C(=O)Nc1cccc(-c2nc3ncccn3c2C)c1` [MMV019790] were, in that order, 85.04% and 56.75%.
In the case of `Cc1ccc2cc(C3NC(=O)c4ccccc4N3)c(Cl)nc2c1` (centres unmarked) [MMV019807], the “Relative Bioluminescence (%)” value is listed as 69.92% under setting [3] and 111.93% under setting [4].
